This passage reports IC50, Activity and inhibition results from ChEMBL document CHEMBL1139857, “Target-based approach to inhibitors of histone arginine methyltransferases” (J Med Chem, 2007).

Active and inactive are the calls of the source. No cut-off for these calls is given here.

For one assay, the target named is RmtA (Emericella nidulans, UniProt Q5VLE3). Briefly: Inhibition of Aspergillus nidulans RmtA by TRF assay.
The target of assay [1] is T1, Androgen receptor (Homo sapiens) (UniProt P10275).
T1 sequence (whole entry): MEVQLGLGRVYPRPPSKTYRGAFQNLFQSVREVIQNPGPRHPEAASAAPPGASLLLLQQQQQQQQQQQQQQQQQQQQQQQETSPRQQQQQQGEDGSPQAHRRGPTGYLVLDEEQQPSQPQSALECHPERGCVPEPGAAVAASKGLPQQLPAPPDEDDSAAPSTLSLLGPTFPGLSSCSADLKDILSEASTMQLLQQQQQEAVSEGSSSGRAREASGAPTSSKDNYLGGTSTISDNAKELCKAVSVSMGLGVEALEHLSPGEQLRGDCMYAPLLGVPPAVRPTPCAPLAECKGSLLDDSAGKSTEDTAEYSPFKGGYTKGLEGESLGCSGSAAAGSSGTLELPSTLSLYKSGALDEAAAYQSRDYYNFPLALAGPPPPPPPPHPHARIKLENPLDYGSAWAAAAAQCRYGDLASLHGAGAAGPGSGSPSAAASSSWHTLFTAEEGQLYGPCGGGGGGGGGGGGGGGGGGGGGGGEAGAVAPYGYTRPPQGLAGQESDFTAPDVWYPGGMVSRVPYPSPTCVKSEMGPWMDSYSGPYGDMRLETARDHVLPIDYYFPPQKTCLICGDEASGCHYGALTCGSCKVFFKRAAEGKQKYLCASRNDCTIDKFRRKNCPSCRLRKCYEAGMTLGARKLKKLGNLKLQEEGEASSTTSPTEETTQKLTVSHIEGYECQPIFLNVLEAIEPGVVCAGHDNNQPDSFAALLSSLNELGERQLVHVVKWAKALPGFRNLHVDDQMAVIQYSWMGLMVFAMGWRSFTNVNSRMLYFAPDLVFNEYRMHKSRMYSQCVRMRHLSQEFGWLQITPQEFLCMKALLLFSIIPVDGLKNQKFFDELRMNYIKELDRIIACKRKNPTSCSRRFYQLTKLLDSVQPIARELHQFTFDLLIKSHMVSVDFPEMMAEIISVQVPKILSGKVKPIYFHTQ
Briefly: Inhibition of androgen receptor activation in MCF-7-2a cells by reporter gene assay. The assay is classed as cell-based. On the technique in general: Reporter assays use an easily measured gene product as a stand-in for the process of interest.

In assay [2] the target is T2, Estrogen receptor (Homo sapiens) (UniProt P03372).
T2 sequence (whole entry): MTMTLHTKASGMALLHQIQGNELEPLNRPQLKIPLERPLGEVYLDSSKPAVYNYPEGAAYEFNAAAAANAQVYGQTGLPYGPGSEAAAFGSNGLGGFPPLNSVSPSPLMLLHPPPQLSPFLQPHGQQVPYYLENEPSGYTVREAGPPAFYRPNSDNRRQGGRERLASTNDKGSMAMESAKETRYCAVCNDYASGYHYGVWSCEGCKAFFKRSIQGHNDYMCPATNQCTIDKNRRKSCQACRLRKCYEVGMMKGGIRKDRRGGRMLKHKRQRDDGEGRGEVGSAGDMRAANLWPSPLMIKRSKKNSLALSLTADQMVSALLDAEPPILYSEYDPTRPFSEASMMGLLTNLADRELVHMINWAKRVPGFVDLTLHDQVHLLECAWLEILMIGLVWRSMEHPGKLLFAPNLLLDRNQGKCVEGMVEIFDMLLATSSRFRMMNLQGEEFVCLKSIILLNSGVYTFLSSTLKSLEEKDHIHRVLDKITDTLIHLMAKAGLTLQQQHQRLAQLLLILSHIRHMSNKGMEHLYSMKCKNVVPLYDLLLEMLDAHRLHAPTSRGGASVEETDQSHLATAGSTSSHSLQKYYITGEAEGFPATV
Put plainly: Inhibition of estradiol-mediated ERalpha activation in MCF-7-2a cells at 150 uM. Also noted: scale not given: the % may be the effect or the level left. The assay is classed as cell-based.

For assay [3], the target named is T2, Estrogen receptor (Homo sapiens). Briefly: Inhibition of ERalpha activation in MCF-7-2a cells by reporter gene assay. The assay is classed as cell-based.
Assay [4] concerns the target RmtA (Emericella nidulans) (UniProt Q5VLE3). Briefly: Inhibition of Aspergillus nidulans RmtA at 2 uM by TRF assay.
For assay [5] the target is unchanged. Briefly: Inhibition of Aspergillus nidulans RmtA at 10 uM by TRF assay.

One may read the IC50 as the midpoint of a concentration-inhibition curve. As a reminder, the inhibition is the relative decrease from the control value, in per cent.

RmtA (Emericella nidulans), sequence (Q5VLE3 as listed by the source): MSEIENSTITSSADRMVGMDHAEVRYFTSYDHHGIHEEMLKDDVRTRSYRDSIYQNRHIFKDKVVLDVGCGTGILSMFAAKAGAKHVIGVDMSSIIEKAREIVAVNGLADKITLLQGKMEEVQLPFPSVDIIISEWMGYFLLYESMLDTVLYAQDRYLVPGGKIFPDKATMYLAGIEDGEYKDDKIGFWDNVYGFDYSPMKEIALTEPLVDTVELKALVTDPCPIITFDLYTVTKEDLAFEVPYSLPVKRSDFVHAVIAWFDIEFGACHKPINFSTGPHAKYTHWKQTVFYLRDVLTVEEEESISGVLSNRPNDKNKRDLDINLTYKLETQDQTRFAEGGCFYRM
RmtA, sequence (Q5VLE3 whole entry): as the sequence (Q5VLE3 as listed by the source) above

On RmtA, `O=C(Nc1ccc2c(O)cc(S(=O)(=O)O)cc2c1)Nc1ccc2c(O)cc(S(=O)(=O)O)cc2c1` gave an IC50 of 33.8 µM. Also, the outcome in assay [1], in assay [2] and in assay [3] was Active.

For the compound `N=C(N)SCc1cc(Cl)cc(Cl)c1O`, the inhibition in assay [4] worked out at 18.3%; in assay [5], 83.9%.

As to `c1nc(NCCCc2c[nH]cn2)c2nc[nH]c2n1`, the inhibition in assay [4] was 34.9%; in assay [5], 64.7%.

As to `Nc1ccc(S(=O)(=O)c2ccc(NCN3C(=O)NC(=O)C(=O)C3=O)cc2)cc1` [ALLANTODAPSONE], on RmtA, 8.3 µM corresponded to half-maximal inhibition (IC50).

For `N=C(N)c1ccc(/C=C/c2ccc(C(=N)N)cc2)cc1` [STILBAMIDINE], 29.9 µM corresponded to half-maximal inhibition on RmtA (IC50). This compound returned an Activity in assay [2] of 75%.

For the compound `CC(C)(CN)SCc1ccccc1`, in assay [4], the result was inactive. Also, the inhibition in assay [5] amounted to 68.3%.

For the compound `N=C(N)Nc1nc2cc([N+](=O)[O-])ccc2[nH]1`, the inhibition in assay [4] is 15.6%; in assay [5], 75.1%.

`Cc1ccc(CNc2ncnc3[nH]cnc23)cc1`: the inhibition in assay [4] was 26.1%; in assay [5] it was 77%.
